Measured values taken from US20130158035A1, “[…] COMPOUNDS” (Brigham Young University, priority 2010, published 2013).

Test system: MDCK cells
Experiment: HGF-induced epithelial-mesenchymal transition / migration of MDCK cells on transwell filters (crystal violet densitometry)
Type: cell-based
Conditions: Canis lupus familiaris, MDCK, 24 h, Table 3, 10 μM compound, then HGF, percentage like untreated controls (unstimulated cells = maximal effect, HGF only = nil)
Experimental: MDCK cells were seeded at confluency into the wells of a transwell filter in DMEM with 10% fetal bovine serum. Cells were cultured for 24 hours. Test compounds, dissolved in DMSO, were added to each test well to a 10 μM final concentration, and then hepatocyte growth factor (HGF) was then added. The MDCK cells were cultured for 24 hours. Concurrently, controls treated with and without HGF and with no test compounds were also prepared.
After post-HGF addition culturing, transwell filters were prepared by repeated washing using ice cold PBS. The cells were then fixed with paraformaldehyde (3.7%) on ice for 15 minutes to the filters. After fixation, the transwell filters were washed repeatedly with PBS followed by staining with crystal violet for 15 minutes. The transwell filters were washed again with distilled water.
The upper surface of the transwell filters were swabbed using a cotton-tipped probe. The filters were photographed using a gel documentation system. Densitometry measurements were made on the test samples and compared with control samples.

With `NC(=O)c1ccccc1/N=C/c1cccc(Cl)c1Cl` [Compound A-1] as the molecule, how does the inhibition at 10 µM read?
Its inhibition at 10 µM is 94%.

For `NC(=O)c1ccccc1/N=C/c1ccccc1Cl` [Compound A-2], which inhibition at 10 µM is on record?
The inhibition at 10 µM was 75.7%.

`NC(=O)c1ccccc1/N=C/c1cccc2ccccc12` [Compound A-3] was tested. Which inhibition at 10 µM did it give?
The inhibition at 10 µM was 87.8%.

How did the inhibition at 10 µM turn out when `COc1cccc(/C=N/c2ccccc2C(N)=O)c1O` [Compound A-4] was run?
The inhibition at 10 µM was 20.9%.

Which inhibition at 10 µM does the source give for `NC(=O)c1ccccc1/N=C/c1cccc(O)c1O` [Compound A-5] here?
Its inhibition at 10 µM is 48.8%.

For `NC(=O)c1ccccc1/N=C/c1ccc2ccccc2c1` [Compound A-6], which inhibition at 10 µM is on record?
The inhibition at 10 µM was greater than 5%.

`NC(=O)c1ccccc1/N=C/c1ccccc1[N+](=O)[O-]` [Compound A-7] was tested. Which inhibition at 10 µM did it give?
Its inhibition at 10 µM is 11.7%.

For `NC(=O)c1ccccc1/N=C/c1cccc(O)c1` [Compound A-8], which inhibition at 10 µM is on record?
Its inhibition at 10 µM is 19.7%.

`NC(=O)c1ccccc1/N=C/c1cccc(Cl)c1` [Compound A-9] was tested. Which inhibition at 10 µM did it give?
Its inhibition at 10 µM is 96.4%.

With `Cc1ccc(/C=N/c2ccccc2C(N)=O)s1` [Compound A-10] as the molecule, how does the inhibition at 10 µM read?
The inhibition at 10 µM was 91.8%.

With `NC(=O)c1ccccc1/N=C/c1ccco1` [Compound A-11] as the molecule, how does the inhibition at 10 µM read?
Its inhibition at 10 µM is 27.9%.

With `NC(=O)c1ccccc1/N=C/c1ccc(Br)s1` [Compound A-12] as the molecule, how does the inhibition at 10 µM read?
The inhibition at 10 µM was 17.5%.

How did the inhibition at 10 µM turn out when `Cc1ccc(/C=N/c2ccccc2C(N)=O)o1` [Compound A-13] was run?
Its inhibition at 10 µM is 11.2%.

For `CC(C)c1ccc(/C=N/c2ccccc2C(N)=O)cc1` [Compound A-14], which inhibition at 10 µM is on record?
Its inhibition at 10 µM is less than 5%.

For `COc1ccc(/C=N/c2ccccc2C(N)=O)cc1` [Compound A-15], which inhibition at 10 µM is on record?
The inhibition at 10 µM was less than 5%.

Which inhibition at 10 µM does the source give for `NC(=O)c1ccccc1/N=C/c1ccc(Cl)cc1Cl` [Compound A-18] here?
Its inhibition at 10 µM is less than 5%.

Which inhibition at 10 µM does the source give for `COc1cc(CNc2ccc(C)c(Cl)c2)cc(Br)c1OC` [Compound A-19] here?
The inhibition at 10 µM was greater than 5%.

With `COc1cc(CNc2cc(C(=O)O)ccc2C)cc(Br)c1OC` [Compound A-22] as the molecule, how does the inhibition at 10 µM read?
Its inhibition at 10 µM is 33.1%.

Which inhibition at 10 µM does the source give for `COc1cc(CNc2ccc(N3CCOCC3)cc2)cc(Br)c1OC` [Compound A-23] here?
The inhibition at 10 µM was 31.9%.

With `COc1cc(CNc2ccc(N3CCOCC3)c(C(=O)O)c2)cc(Br)c1OC` [Compound A-25] as the molecule, how does the inhibition at 10 µM read?
Its inhibition at 10 µM is less than 5%.

Same assay, conditions: Canis lupus familiaris, MDCK, 24 h, Table 4, 10 μM compound, then HGF, percentage like untreated controls (unstimulated cells = maximal effect, HGF only = nil)

Which inhibition at 10 µM does the source give for `Cc1nc(NC(=O)COc2ccc([N+](=O)[O-])cc2)ccc1I` [Compound B-2] here?
The inhibition at 10 µM was 96.9%.

Which inhibition at 10 µM does the source give for `Cc1nc(NC(=O)c2cccc([N+](=O)[O-])c2)ccc1I` [Compound B-3] here?
Its inhibition at 10 µM is 95.9%.

With `Cc1nc(NC(=O)c2cc([N+](=O)[O-])ccc2N2CCOCC2)ccc1I` [Compound B-4] as the molecule, how does the inhibition at 10 µM read?
The inhibition at 10 µM was 31.7%.

With `Cc1nc(NC(=O)c2ccc(N3CCCC3)c([N+](=O)[O-])c2)ccc1I` [Compound B-5] as the molecule, how does the inhibition at 10 µM read?
The inhibition at 10 µM was 44%.

For `Cc1nc(NC(=O)c2cccc([N+](=O)[O-])c2)ccc1Br` [Compound B-6], which inhibition at 10 µM is on record?
Its inhibition at 10 µM is 88.6%.

For `Cc1cc(C)nc(NC(=O)c2cccc([N+](=O)[O-])c2)c1` [Compound B-7], which inhibition at 10 µM is on record?
Its inhibition at 10 µM is 52.5%.

`O=C(Nc1ccccn1)c1cccc([N+](=O)[O-])c1` [Compound B-8] was tested. Which inhibition at 10 µM did it give?
Its inhibition at 10 µM is 45.3%.

How did the inhibition at 10 µM turn out when `CCOc1ccc(C(=O)Nc2cccc(C)n2)cc1[N+](=O)[O-]` [Compound B-9] was run?
Its inhibition at 10 µM is 34.6%.

How did the inhibition at 10 µM turn out when `CCOc1ccc(C(=O)Nc2ccc(I)cn2)cc1[N+](=O)[O-]` [Compound B-10] was run?
Its inhibition at 10 µM is 69.9%.

`COc1ccc(C(=O)Nc2cccc(C)n2)cc1[N+](=O)[O-]` [Compound B-11] was tested. Which inhibition at 10 µM did it give?
The inhibition at 10 µM was less than 5%.

How did the inhibition at 10 µM turn out when `O=C(Nc1ncc(Br)cc1Br)c1cccc([N+](=O)[O-])c1` [Compound B-12] was run?
The inhibition at 10 µM was 42.4%.

Same assay, conditions: Canis lupus familiaris, MDCK, 24 h, Table 5, 10 μM compound, then HGF, percentage like untreated controls (unstimulated cells = maximal effect, HGF only = nil)

How did the inhibition at 10 µM turn out when `O=C(Nc1cccc([N+](=O)[O-])c1)c1ccc(-c2ccccc2)cc1` [Compound B-15] was run?
Its inhibition at 10 µM is 31.6%.

How did the inhibition at 10 µM turn out when `CC(=O)c1cccc(NC(=O)c2ccc(-c3ccccc3)cc2)c1` [Compound B-16] was run?
Its inhibition at 10 µM is greater than 5%.

`Cc1cccc(NC(=O)c2ccc(-c3ccccc3)cc2)c1` [Compound B-17] was tested. Which inhibition at 10 µM did it give?
Its inhibition at 10 µM is 30.2%.

With `O=C(Nc1cccc(C(=O)c2ccccc2)c1)c1ccc(-c2ccccc2)cc1` [Compound B-18] as the molecule, how does the inhibition at 10 µM read?
The inhibition at 10 µM was 93.8%.

With `O=C(Nc1cccc(Cl)c1)c1ccc(-c2ccccc2)cc1` [Compound B-19] as the molecule, how does the inhibition at 10 µM read?
The inhibition at 10 µM was 93.2%.

`NC(=O)c1cccc(NC(=O)c2ccc(-c3ccccc3)cc2)c1` [Compound B-20] was tested. Which inhibition at 10 µM did it give?
The inhibition at 10 µM was 20.6%.

`O=C(Nc1cccc(C(=O)N2CCOCC2)c1)c1ccc(-c2ccccc2)cc1` [Compound B-21] was tested. Which inhibition at 10 µM did it give?
Its inhibition at 10 µM is 27.2%.

For `COc1cc(C(=O)Nc2ccc(N(C)C)cc2)cc(OC)c1OC` [Compound B-22], which inhibition at 10 µM is on record?
The inhibition at 10 µM was greater than 5%.

For `CCC(=O)Nc1ccc(NC(=O)c2cc(OC)c(OC)c(OC)c2)cc1` [Compound B-23], which inhibition at 10 µM is on record?
The inhibition at 10 µM was 29.4%.

How did the inhibition at 10 µM turn out when `COc1cc(C(=O)Nc2ccc(N3CCCC3=O)cc2)cc(OC)c1OC` [Compound B-24] was run?
The inhibition at 10 µM was 93.2%.

`COc1cc(C(=O)Nc2ccc(N3CCCC3)cc2)cc(OC)c1OC` [Compound B-25] was tested. Which inhibition at 10 µM did it give?
The inhibition at 10 µM was 94.9%.

For `CCN1CCN(c2ccc(NC(=O)c3cc(OC)c(OC)c(OC)c3)cc2Cl)CC1` [Compound B-26], which inhibition at 10 µM is on record?
The inhibition at 10 µM was greater than 5%.

How did the inhibition at 10 µM turn out when `COc1cc(C(=O)Nc2ccc(Nc3ccccc3)cc2)cc(OC)c1OC` [Compound B-27] was run?
Its inhibition at 10 µM is 13.7%.

Which inhibition at 10 µM does the source give for `COc1cc(C(=O)Nc2ccc(N3CCN(C)CC3)cc2)cc(OC)c1OC` [Compound B-28] here?
Its inhibition at 10 µM is 13.7%.

With `COc1cc(OC)cc(C(=O)Nc2ccc(N3CCCC3)cc2)c1` [Compound B-29] as the molecule, how does the inhibition at 10 µM read?
Its inhibition at 10 µM is 26.4%.

How did the inhibition at 10 µM turn out when `CCCCOc1ccc(C(=O)Nc2ccc(N3CCCC3=O)cc2)cc1` [Compound B-30] was run?
Its inhibition at 10 µM is 81.1%.

How did the inhibition at 10 µM turn out when `Cc1cc(NC(=O)c2cccc([N+](=O)[O-])c2)ccc1I` [Compound B-31] was run?
The inhibition at 10 µM was 53.1%.

Same assay, conditions: Table 2; 10 μM compound, then HGF, 24 hours; percentage like untreated controls (unstimulated cells = maximal effect, HGF only = nil)

Which “Assay Value” does the source give for `O=C1CC(c2cc3c(cc2[N+](=O)[O-])OCO3)c2cc3c(cc2N1)CCC3` (centres unmarked) [Compound 91] here?
The value was less than 5%.

How did the “Assay Value” turn out when `COc1cccc(C2CC(=O)Nc3cc4c(cc32)CCC4)c1OC` (centres unmarked) [Compound 92] was run?
Its value is less than 5%.

With `O=C1CC(c2cc3c(cc2[N+](=O)[O-])OCO3)c2cc3c(cc2N1)CCC3` (centres unmarked) [Compound 93] as the molecule, how does the “Assay Value” read?
The value was less than 5%.

Which “Assay Value” does the source give for `O=C1CC(c2ccccc2C(F)(F)F)c2cc3c(cc2N1)CCC3` (centres unmarked) [Compound 94] here?
Its value is less than 5%.

Which “Assay Value” does the source give for `O=C1CC(c2cccc(Br)c2)c2cc3c(cc2N1)CCC3` (centres unmarked) [Compound 95] here?
The value was less than 5%.

For `O=C1CC(c2cccc(Cl)c2)c2cc3c(cc2N1)CCC3` (centres unmarked) [Compound 96], which “Assay Value” is on record?
The value was less than 5%.

How did the “Assay Value” turn out when `O=C1CC(c2ccc(Cl)cc2Cl)c2cc3c(cc2N1)CCC3` (centres unmarked) [Compound 97] was run?
Its value is less than 5%.

Which “Assay Value” does the source give for `O=C1CC(c2ccc([N+](=O)[O-])cc2)c2cc3c(cc2N1)CCC3` (centres unmarked) [Compound 98] here?
Its value is less than 5%.

`COc1cccc(C2CC(=O)Nc3cc4c(cc32)CCC4)c1` (centres unmarked) [Compound 99] was tested. Which “Assay Value” did it give?
Its value is less than 5%.

Same assay, conditions: Table 3; 10 μM compound, then HGF, 24 hours; percentage like untreated controls (unstimulated cells = maximal effect, HGF only = nil)

For `NC(=O)c1ccccc1/N=C/c1ccc2ccccc2c1` [Compound A-16], which “Assay Value” is on record?
The value was less than 5%.

Which “Assay Value” does the source give for `COc1cc(CNc2ccc(C)c(Cl)c2)cc(I)c1OC` [Compound A-20] here?
Its value is 81.9%.

For `COc1cc(CNc2ccc(C)c(Cl)c2)cc(Cl)c1OC` [Compound A-21], which “Assay Value” is on record?
Its value is 57.5%.

For `C#CCOc1c(Br)cc(CNc2ccc(Cl)c(Cl)c2)cc1OC` [Compound A-24], which “Assay Value” is on record?
The value was 16.3%.

How did the “Assay Value” turn out when `COc1cc(CNc2ccc(C)c(Cl)c2)cc(Cl)c1OC` [Compound A-26] was run?
Its value is less than 5%.

Same assay, conditions: Table 4; 10 μM compound, then HGF, 24 hours; percentage like untreated controls (unstimulated cells = maximal effect, HGF only = nil)

With `Cc1nc(NC(=O)COc2ccc([N+](=O)[O-])cc2)ccc1Br` [Compound B-1] as the molecule, how does the “Assay Value” read?
Its value is 97.1%.

How did the “Assay Value” turn out when `Cc1nc(NC(=O)c2ccc(N3CCOCC3)c([N+](=O)[O-])c2)ccc1I` [Compound B-13] was run?
Its value is 29.4%.

Same assay, conditions: Table 5; 10 μM compound, then HGF, 24 hours; percentage like untreated controls (unstimulated cells = maximal effect, HGF only = nil)

For `Cc1cc(NC(=O)c2cccc([N+](=O)[O-])c2)ccc1O` [Compound B-14], which “Assay Value” is on record?
The value was 34.6%.
